Patent US11154529B2, “Phosphaplatin liquid formulations” (Phosplatin Therapeutics Inc., priority 2016, dated 2021)

Test: Ready-to-use formulation stability at −20° C., 5 mg/mL (R,R)-pyrodach-2 in 10 mM Bicarbonate Buffer at pH 8.6, 10 mL vials
Type: physicochemical

Structure (SMILES): O=P1(O)OP(=O)(O)[O][Pt]2([NH][C@@H]3CCCC[C@H]3[NH]2)[O]1 (stereo partly drawn) [(R,R)-pyrodach-2, (R,R)-trans-1,2-cyclohexanediamine-(dihydrogenpyrophosphato)platinum(II)]
- Potency (Assay) (1 month): 97.5%
- Purity (% Area) (1 month): 97.08%
- Unknown Impurities RRT~0.29 (1 month): 0.16%
- Unknown Impurities RRT~0.41 (1 month): 0.07%
- Unknown Impurities RRT~0.44 (1 month): 0.09%
- Unknown Impurities RRT~0.49 (1 month): 0.94%
- Unknown Impurities RRT~0.59 (1 month): 0.09%
- Unknown Impurities RRT~0.62 (1 month): 0.12%
- Unknown Impurities RRT~0.73 (1 month): 1.12%
- Unknown Impurities RRT~1.69 (1 month): ND (ND = Not Detected, or <0.05%)
- Unknown Impurities RRT~2.96 (1 month): ND (ND = Not Detected, or <0.05%)
- Unknown Impurities RRT~3.02 (1 month): ND (ND = Not Detected, or <0.05%)
- Unknown Impurities RRT~3.12 (1 month): 0.05%
- Unknown Impurities RRT~3.24 (1 month): ND (ND = Not Detected, or <0.05%)
- Unknown Impurities RRT~3.30 (1 month): 0.05%
- Unknown Impurities RRT~3.33 (1 month): 0.06%
- Unknown Impurities RRT~3.70 (1 month): ND (ND = Not Detected, or <0.05%)
- Unknown Impurities RRT~4.02 (1 month): 0.08%
- pH (1 month): 8.77
- Potency (Assay) (6 month): 98.4%
- Purity (% Area) (6 month): 96.36%
- Unknown Impurities RRT~0.29 (6 month): 0.23%
- Unknown Impurities RRT~0.41 (6 month): 0.45%
- Unknown Impurities RRT~0.44 (6 month): ND (ND = Not Detected, or <0.05%)
- Unknown Impurities RRT~0.49 (6 month): 1.41%
- Unknown Impurities RRT~0.59 (6 month): 0.15%
- Unknown Impurities RRT~0.62 (6 month): ND (ND = Not Detected, or <0.05%)
- Unknown Impurities RRT~0.73 (6 month): 0.84%
- Unknown Impurities RRT~1.69 (6 month): 0.22%
- Unknown Impurities RRT~2.96 (6 month): ND (ND = Not Detected, or <0.05%)
- Unknown Impurities RRT~3.02 (6 month): ND (ND = Not Detected, or <0.05%)
- Unknown Impurities RRT~3.12 (6 month): 0.08%
- Unknown Impurities RRT~3.24 (6 month): ND (ND = Not Detected, or <0.05%)
- Unknown Impurities RRT~3.30 (6 month): 0.06%
- Unknown Impurities RRT~3.33 (6 month): 0.05%
- Unknown Impurities RRT~3.70 (6 month): ND (ND = Not Detected, or <0.05%)
- Unknown Impurities RRT~4.02 (6 month): 0.09%
- pH (6 month): 8.72
- Potency (Assay) (12 month): 86.1%
- Purity (% Area) (12 month): 90.94%
- Unknown Impurities RRT~0.29 (12 month): 0.13%
- Unknown Impurities RRT~0.41 (12 month): 5.26%
- Unknown Impurities RRT~0.44 (12 month): ND (ND = Not Detected, or <0.05%)
- Unknown Impurities RRT~0.49 (12 month): 1.19%
- Unknown Impurities RRT~0.59 (12 month): 0.27%
- Unknown Impurities RRT~0.62 (12 month): 0.43%
- Unknown Impurities RRT~0.73 (12 month): 0.88%
- Unknown Impurities RRT~1.69 (12 month): 0.25%
- Unknown Impurities RRT~2.96 (12 month): 0.08%
- Unknown Impurities RRT~3.02 (12 month): 0.09%
- Unknown Impurities RRT~3.12 (12 month): 0.05%
- Unknown Impurities RRT~3.24 (12 month): 0.06%
- Unknown Impurities RRT~3.30 (12 month): 0.13%
- Unknown Impurities RRT~3.33 (12 month): 0.06%
- Unknown Impurities RRT~3.70 (12 month): 0.09%
- Unknown Impurities RRT~4.02 (12 month): 0.14%
- pH (12 month): 8.83
- Potency (Assay) (Initial): 100.3%
- Purity (% Area) (Initial): 98.04%
- Unknown Impurities RRT~0.29 (Initial): 0.11%
- Unknown Impurities RRT~0.41 (Initial): ND (ND = Not Detected, or <0.05%)
- Unknown Impurities RRT~0.44 (Initial): ND (ND = Not Detected, or <0.05%)
- Unknown Impurities RRT~0.49 (Initial): 0.62%
- Unknown Impurities RRT~0.59 (Initial): ND (ND = Not Detected, or <0.05%)
- Unknown Impurities RRT~0.62 (Initial): ND (ND = Not Detected, or <0.05%)
- Unknown Impurities RRT~0.73 (Initial): 1.05%
- Unknown Impurities RRT~1.69 (Initial): ND (ND = Not Detected, or <0.05%)
- Unknown Impurities RRT~2.96 (Initial): ND (ND = Not Detected, or <0.05%)
- Unknown Impurities RRT~3.02 (Initial): ND (ND = Not Detected, or <0.05%)
- Unknown Impurities RRT~3.12 (Initial): ND (ND = Not Detected, or <0.05%)
- Unknown Impurities RRT~3.24 (Initial): ND (ND = Not Detected, or <0.05%)
- Unknown Impurities RRT~3.30 (Initial): ND (ND = Not Detected, or <0.05%)
- Unknown Impurities RRT~3.33 (Initial): ND (ND = Not Detected, or <0.05%)
- Unknown Impurities RRT~3.70 (Initial): ND (ND = Not Detected, or <0.05%)
- Unknown Impurities RRT~4.02 (Initial): ND (ND = Not Detected, or <0.05%)
- pH (Initial): 8.60
